# Data as given in patent publication US7919495B2, “Pyridyl non-aromatic nitrogen-containing heterocyclic-1-carboxylate compound” (Astellas Pharma, Inc., priority 2005, dated 2011).
# Structures can show the parent of a compound that is named as a salt. Where two headings read alike, the source gives them in different places.
# Key:
# [1] = target: T1, FAAH in human bladder epithelial cancer-derived cell line 5678 cells (Homo sapiens, UniProt O00519); assay: Screening for FAAH activity-inhibiting substance with human bladder epithelial cancer-derived cell (IC50, Table 64); type: cell-based
# T1 construct: host or cells: human bladder epithelial cancer-derived cell line ('5678' [sic], HTB-9)
# T1 sequence (O00519 1-579): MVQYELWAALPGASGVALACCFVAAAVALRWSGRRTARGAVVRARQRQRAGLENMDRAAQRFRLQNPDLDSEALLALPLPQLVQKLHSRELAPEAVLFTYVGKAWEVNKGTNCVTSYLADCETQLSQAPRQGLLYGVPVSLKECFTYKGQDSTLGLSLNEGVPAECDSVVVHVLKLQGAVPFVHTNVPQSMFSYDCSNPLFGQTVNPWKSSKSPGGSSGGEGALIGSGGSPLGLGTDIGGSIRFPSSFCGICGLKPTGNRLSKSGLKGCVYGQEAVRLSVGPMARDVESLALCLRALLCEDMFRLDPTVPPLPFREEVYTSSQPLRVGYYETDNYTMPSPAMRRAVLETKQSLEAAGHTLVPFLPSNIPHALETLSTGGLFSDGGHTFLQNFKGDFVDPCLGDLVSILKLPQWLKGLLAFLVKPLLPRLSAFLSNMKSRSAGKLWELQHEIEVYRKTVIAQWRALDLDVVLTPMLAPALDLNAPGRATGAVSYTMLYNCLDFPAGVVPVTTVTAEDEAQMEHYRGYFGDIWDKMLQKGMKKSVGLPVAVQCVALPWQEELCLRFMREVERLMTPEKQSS
# Description: Screening for FAAH Activity-Inhibiting Substance with Human Bladder Epithelial Cancer-Derived Cell
# (1) Screening for FAAH Activity-Inhibiting Substance:
# Human bladder epithelial cancer-derived cell line […] cells (HTB-9; ATCC) were seeded on a 48-well cell culture plate in an amount of 1×10^5 cell/well, using 10% fetal bovine serum (HyClone)-containing RPMI1640 medium (Invitrogen). After incubated at 37° C. for at least 12 hours, the cells were washed with 400 μl/well of a buffer (Hank's Balanced Salt Solution, 20 mM Hepes-NaOH (pH 7.4)). A test substance dissolved in DMSO was added to a substrate solution (the above buffer containing 3 μCi/ml radiolabeled anandamide (Anandamide [ethanolamine 1-3H]) and 10 μM anandamide) so as to have a concentration of from 0.003 nM to 30 nM. As a control, DMSO alone was added. 100 μl/well of the substrate solution was added to the above cells, and incubated in a CO2 incubator at 37° C. for 30 minutes. Next, the cell culture plate was transferred onto ice, and the substrate solution was removed by suction; and 75 μl/well of a cytolytic solution (the above buffer containing 0.5% Triton X-100, and 10 μM of FAAH-inhibitory activity-having compound, 3′-carbamoylbiphenyl-3-yl cyclohexylcarbamate (URB597; Cayman chemical; Kathuria et al., Nature Med., Vol. 9, pp. 76-81, 2003)) was added thereto, followed by stirring. The resulting cell lysate in every well was individually transferred into a 1.5 ml sample tube, to which was added 150 μl of 1:1 (by volume) chloroform/methanol solution, followed by vortexing. This was centrifuged (15000 rpm, 2 minutes), whereby the decomposed product, ethanolamine (ethanolamine 1-^3H) was separated in the upper layer (water/methanol layer) and the unreacted radiolabeled anandamide was in the lower layer (chloroform layer). 25 μl of the upper layer was transferred into a 96-well organic solvent-resistant white microplate (PicoPlate-96; Perkin Elmer), 150 μl of Microscint-20 (Perkin Elmer) was added thereto, and this was measured with a microplate scintillation counter (TopCount™; Beckman). As compared with the control, the substance that gave a decreased value was selected as an FAAH activity-inhibiting substance.
# (2) Measurement of IC50 Value of FAAH Activity-Inhibiting Substance:
# A test compound dissolved in DMSO to have a concentration of 10 mM was dissolved in the substrate solution so as to have a varying concentration of from 0.003 nM to 30 μM. According to the method mentioned above, the compound was analyzed for its influence on FAAH activity. As a negative control, DMSO was used. As a positive control, URB597 was added to the substrate solution to have a concentration of 10 μM. Based on the measured value of the positive control, 0%, and on the measured value of the negative control, 100%, IC50 value of the test substance was obtained.
# [2] = system: CPA-induced urinary frequency in rat; assay: animal or person; type: in vivo; conditions: po, 48 h, read-out: effective dose (increase of reduced effective bladder capacity)
Compound,IC50 [1] [nM],further results
NC(=O)c1cncc(OC(=O)N2CCC(CCc3ccc(-c4cccc(F)c4)cc3)CC2)c1 [Example 345],0.18,–
CCN(CC)C(=O)c1ccc(CCC2CCN(C(=O)Oc3cncc(C(N)=O)c3)CC2)cc1 [Example 362],0.42,–
CN(C)C(=O)c1cccc(CCC2CCN(C(=O)Oc3cncc(C(N)=O)c3)CC2)c1 [Example 325],0.54,minimal effective dose [2]: 1 mg/kg
NC(=O)c1cncc(OC(=O)N2CCC(CCc3cccc(-c4ccccc4)c3)CC2)c1 [Example 340],0.052,–
O=C(c1ccc(OCc2cccc(F)c2)cc1)C1CCN(C(=O)Oc2cccnc2)CC1 [Example 3],0.073,–
O=C(Oc1cccnc1)N1CCN(C(=O)c2ccc(OCCc3cccc(Cl)c3)cc2)CC1 [Example 160],0.51,–
O=C(Oc1cccnc1)N1CCN(C(=O)c2ccc(OCc3cc(F)cc(F)c3)cc2)CC1 [Example 152],0.18,–
O=C(Oc1cccnc1)N1CCN(C(=O)c2cccc(OCc3cccc(Cl)c3)c2)CC1 [Example 138],0.078,–
O=C(Oc1cncc(Cl)c1)N1CCC(Oc2ccc(OCc3cccc(F)c3)cc2)CC1 [Example 42],0.43,–
COC(=O)CCc1cncc(OC(=O)N2CCC(Oc3ccc(OCc4cccc(F)c4)cc3)CC2)c1 [Example 61],0.35,–
NC(=O)c1cncc(OC(=O)N2CCC(CCc3ccc(-c4ccccc4F)cc3)CC2)c1 [Example 346],0.27,–
O=C(O)c1cncc(OC(=O)N2CCC(CCc3cccc(-c4ccccc4)c3)CC2)c1 [Example 293],0.24,–
N#Cc1cccc(CCC2CCN(C(=O)Oc3cncc(C(=O)NCCO)c3)CC2)c1 [Example 330],0.53,–
NC(=O)c1cncc(OC(=O)N2CCC(CCc3cccc(-c4ccccn4)c3)CC2)c1 [Example 349],0.054,–
O=C(Oc1cccnc1)N1CCN(C(=O)c2ccc(OCc3ccc(F)cc3)cc2)CC1 [Example 155],0.061,–
O=C(Oc1cccnc1)N1CCC(Oc2ccc(OCc3cccc(F)c3)cn2)CC1 [Example 103],0.092,–
NC(=O)c1cncc(OC(=O)N2CCC(CCCC3CCN(c4ccc5ccccc5n4)CC3)CC2)c1 [Example 380],0.35,–
O=C(O)c1cncc(OC(=O)N2CCC(CCc3ccc(-c4ccccc4)cc3)CC2)c1 [Example 281],0.082,–
O=C(Oc1cccnc1)N1CCC(S(=O)(=O)c2ccc(OCc3ccccc3)cc2)CC1 [Example 88],0.37,–
NC(=O)c1cncc(OC(=O)N2CCC(CCc3cccc(C(=O)NC4CCCCC4)c3)CC2)c1 [Example 351],0.13,–
O=C(Oc1cccnc1)N1CCC(c2cccc(OCCCc3ccccc3)c2)CC1 [Example 113],0.056,–
CN(C)c1cncc(OC(=O)N2CCC(Oc3ccc(OCc4cccc(F)c4)cc3)CC2)c1 [Example 30],0.19,–
O=C(Oc1cccnc1)N1CCN(C(=O)c2ccc(OCc3cccc(Br)c3)cc2)CC1 [Example 159],0.23,–
O=C(Oc1cccnc1)N1CCN(C(=O)c2ccc(OCc3cccc([N+](=O)[O-])c3)cc2)CC1 [Example 154],0.17,–
Cc1ccc(OC(=O)N2CCC(Oc3ccc(OCc4cccc(F)c4)cc3)CC2)cn1 [Example 13],0.27,–
"O=C(O)C(=O)O.O=C(O)C1CCN(c2cncc(OC(=O)N3CCC(Oc4ccc(OCc5cccc(F)c5)cc4)CC3)c2)CC1 [Example 261, 1-(5-{[(4-{4-[(3-fluorobenzyl)oxy]phenoxy}piperidin-1-yl)carbonyl]oxy}pyridin-3-yl)piperidine-4-carboxylic acid oxalate]",0.54,minimal effective dose [2]: 3 mg/kg
O=C(Oc1cccnc1)N1CCC(S(=O)(=O)c2ccc(OCc3cccc(F)c3)cc2)CC1 [Example 80],0.044,–

Compound,IC50 [1] [nM],further results
N#Cc1cccc(-c2cccc(CCC3CCN(C(=O)Oc4cncc(C(N)=O)c4)CC3)c2)c1 [Example 341],0.078,–
O=C(Oc1cccnc1)N1CCC(Oc2ccc(OCCC3CCCCC3)cc2)CC1 [Example 207],0.31,–
O=C(Oc1cccnc1)N1CCN(C(=O)c2ccc(OCc3cccc(C(F)(F)F)c3)cc2)CC1 [Example 149],0.45,–
NC(=O)CCNC(=O)c1cncc(OC(=O)N2CCC(CCc3ccccc3)CC2)c1 [Example 333],0.43,–
O=C(Oc1cccnc1)N1CCC(Oc2ccc(OCc3ccccc3F)cc2)CC1 [Example 208],0.13,–
N#Cc1ccc(-c2ccc(CCC3CCN(C(=O)Oc4cncc(C(=O)O)c4)CC3)cc2)cc1 [Example 301],0.4,–
O=C(Oc1cccnc1)N1CCN(C(=O)c2cccc(OCC3CCCCC3)c2)CC1 [Example 122],0.15,–
O=C(O)c1cncc(OC(=O)N2CCC(CCc3ccc(-c4cccc(F)c4)cc3)CC2)c1 [Example 302],0.17,–
"O=C(Oc1cccnc1)N1CCC(Oc2ccc(OCc3cccc(Cl)c3)cc2)CC1 [Example 206, 3-pyridyl 4-{4-[(3-chlorobenzyl)oxy]phenoxy}-1-piperidinecarboxylate hydrochloride]",0.17,–
NC(=O)c1cccc(-c2cncc(OC(=O)N3CCC(CCc4ccccc4)CC3)c2)c1 [Example 266],0.31,–
O=C(Nc1ccccc1)C1CCN(C(=O)Oc2cccnc2)CC1 [Example 173],–,"IC50 ([1]; human bladder epithelial cancer-derived cell line 5678 cells, read-out: cell FAAH IC50): 0.69 nM"
COc1cccc(-c2ccc(CCC3CCN(C(=O)Oc4cncc(C(=O)O)c4)CC3)cc2)c1 [Example 303],0.12,–
CC(C)NC(=O)c1cccc(CCC2CCN(C(=O)Oc3cncc(C(N)=O)c3)CC2)c1 [Example 372],0.49,–
O=C(O)c1cncc(OC(=O)N2CCC(CCc3ccc(-c4ccccc4F)cc3)CC2)c1 [Example 304],0.24,–
N#Cc1ccc(-c2ccc(CCC3CCN(C(=O)Oc4cncc(C(N)=O)c4)CC3)cc2)cc1 [Example 344],0.13,–
O=C(Oc1cccnc1)N1CCC(Oc2ccc(OCc3ccccc3)c(Cl)c2)CC1 [Example 70],0.099,–
NC(=O)c1cncc(OC(=O)N2CCC(CCc3ccc(-c4ccc(F)cc4)cc3)CC2)c1 [Example 338],0.034,–
O=C(Oc1cccnc1)N1CCC(Oc2ccc(OCc3ccccc3)cc2Cl)CC1 [Example 51],0.26,–
O=C(Oc1cccnc1)N1CCC(Sc2cccc(OCc3cccc(F)c3)c2)CC1 [Example 101],0.078,–
Cc1cccc(N2CCC(CCCC3CCN(C(=O)Oc4cncc(C(N)=O)c4)CC3)CC2)n1 [Example 378],0.2,–
CCCCCCCCc1ccc(NC(=O)C2CCN(C(=O)Oc3cccnc3)CC2)cc1 [Example 176],0.84,–
COc1cccc(CCC2CCN(C(=O)Oc3cncc(C(=O)NCCO)c3)CC2)c1 [Example 328],0.42,–
N#Cc1cccc(-c2cccc(CCC3CCN(C(=O)Oc4cncc(C(=O)O)c4)CC3)c2)c1 [Example 294],0.6,–
O=C(O)c1cncc(OC(=O)N2CCC(CCCC3CCN(c4ccc5ccccc5n4)CC3)CC2)c1 [Example 315],0.51,–
COc1ccc(-c2ccc(CCC3CCN(C(=O)Oc4cncc(C(=O)O)c4)CC3)cc2)cc1 [Example 300],0.43,–
CC(=O)OCc1cncc(OC(=O)N2CCC(Oc3ccc(OCc4cccc(F)c4)cc3)CC2)c1 [Example 100],0.035,–
